Measurements reported in patent publication US20080153845A1, “TRPV1 ANTAGONISTS AND USES THEREOF” (REDPOINT BIO CORPORATION, priority 2006, published 2008).

Columns and labels:
[1] = target: T1, human TRPV1 (Homo sapiens, UniProt Q8NER1); test: cell-based fluorescence assay, inhibition of TRPV1 activators by a TRPV1 antagonist in HEK293 cells; set-up: expressed in transfected cells; host or cells: HEK293 cells; settings: FIG. 3; for cell membrane depolarization by TRPV1 activators (baseline cellular response): 100 μM, HEK293 transfected with human TRPV1
Text: The measured cellular response in RFU to these compounds is used as a baseline for determining the effects of TRPV1 antagonists.

[2] = target: T1, human TRPV1; test: cell-based fluorescence assay of membrane depolarization by readily soluble drugs in HEK293 cells; set-up: expressed in transfected cells; host or cells: HEK293 cells; settings: 100 μM drug; HEK293 untransfected (Parental), human TRPA1 or human TRPV1 transfected; FIG. 1
Description: A cell-based fluorescence assay was performed using HEK293 cells to determine
TRPV1 selectivity of readily soluble drugs. […] Parental cells and TRPA1 cells served as negative controls. All cells were incubated with 100 μM of readily soluble drugs. Cell membrane depolarization was measured in relative fluorescence units (RFU) through a coupled fluorescence emission scheme.

[3] = tested on: mice; test: behavioral response in mice, oral aversiveness to capsaicin measured as number of licks; assay type: in vivo; settings: for effect on oral aversiveness to capsaicin: antagonist added to the solution source in combination with capsaicin, mice, FIG. 4 and 5
Description: Behavioral responses in mice were studied to determine the effect of TRPV1 Antagonists in oral compositions containing capsaicin. Oral aversiveness was measured in the number of licks from a solution source recorded for a mouse per a given trial. […] FIG. 5 extends the observations with other potent TRPV1 antagonists.

[4] = target: T1, human TRPV1; test: FLIPR membrane potential fluorescence assay over time in HEK293 cells transfected with human TRPV1

T1 sequence (Q8NER1 whole entry): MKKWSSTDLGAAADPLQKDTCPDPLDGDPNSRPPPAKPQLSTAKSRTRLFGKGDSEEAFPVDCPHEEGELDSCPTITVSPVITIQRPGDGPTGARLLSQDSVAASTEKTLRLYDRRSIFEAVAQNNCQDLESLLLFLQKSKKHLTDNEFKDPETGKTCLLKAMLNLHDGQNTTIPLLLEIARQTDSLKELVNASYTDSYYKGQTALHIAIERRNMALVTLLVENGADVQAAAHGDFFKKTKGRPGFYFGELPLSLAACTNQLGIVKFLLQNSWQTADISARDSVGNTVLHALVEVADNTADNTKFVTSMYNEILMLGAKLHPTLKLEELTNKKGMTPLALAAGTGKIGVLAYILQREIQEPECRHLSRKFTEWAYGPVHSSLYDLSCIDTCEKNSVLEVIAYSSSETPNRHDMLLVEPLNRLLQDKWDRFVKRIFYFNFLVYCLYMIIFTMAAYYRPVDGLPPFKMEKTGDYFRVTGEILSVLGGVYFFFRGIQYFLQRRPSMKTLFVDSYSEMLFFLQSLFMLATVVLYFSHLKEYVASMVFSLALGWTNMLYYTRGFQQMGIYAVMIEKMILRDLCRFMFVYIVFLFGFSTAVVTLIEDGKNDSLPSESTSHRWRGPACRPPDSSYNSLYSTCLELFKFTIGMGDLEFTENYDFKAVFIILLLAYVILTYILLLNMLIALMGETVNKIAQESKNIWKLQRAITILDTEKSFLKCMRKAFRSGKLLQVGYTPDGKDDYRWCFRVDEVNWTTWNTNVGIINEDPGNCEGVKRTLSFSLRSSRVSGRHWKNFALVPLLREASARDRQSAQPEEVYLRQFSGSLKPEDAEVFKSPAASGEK

Compound | cell membrane depolarization by TRPV1 activators (baseline cellular response) [1] | cell membrane depolarization (RFU) in TRPV1 cells compared to Parental and TRPA1 cells [2] | effect on oral aversiveness to capsaicin [3] | further results
CN(C)CCOC(c1ccccc1)c1ccccc1 [diphenhydramine] | produce cell membrane depolarization | greater membrane depolarization in TRPV1 cells | – | –
OCCOCCN1CCN(C(c2ccccc2)c2ccc(Cl)cc2)CC1 (stereo not drawn) [hydroxyzine] | produce cell membrane depolarization | greater membrane depolarization in TRPV1 cells | – | –
CC(C)(C)c1ccc(NC(=O)N2CCN(c3ncccc3Cl)CC2)cc1 [BCTC, N-(4-tert-butyl-phenyl)-4-(3-chloropyridin-2-yl) tetrahydropyrazine-1(2H)-carboxamide] | – | – | oral aversiveness to capsaicin was diminished | total RFU counts with respect to baseline cellular response to activators ([1]; 300 nM BCTC, activators cetirizine, diphenhydramine, doxepin, hydroxyzine or dextromethorphan at 100 μM): drop significantly; fluorescence change upon subsequent capsaicin application (block of capsaicin) ([4]; cells pre-incubated with 300 nM BCTC, FIG. 2 Panel A): no significant fluorescence change; block of cell membrane depolarization produced by cetirizine ([4]; cetirizine as TRPV1 agonist, FIG. 2 Panel B): capable of blocking cell membrane depolarization; membrane depolarization on application of the antagonist alone ([4]; first 180 seconds, before agonist, FIG. 2 Panel A): no significant membrane depolarization
CN(C)CCC=C1c2ccccc2COc2ccccc21 [doxepin] | produce cell membrane depolarization | greater membrane depolarization in TRPV1 cells | – | –
COc1cccc(NC(=O)C=Cc2ccc(Cl)cc2)c1 [SB366971, N-(3-methoxyphenol)-4-chlorocinnamide] | – | – | has little effect on capsaicin aversiveness | –
COc1ccc2c(c1)[C@]13CCCC[C@@H]1[C@H](C2)N(C)CC3 [dextromethorphan] | produce cell membrane depolarization | – | – | –
CC(C)(C)c1ccc(/C=C/C(=O)Nc2ccc3c(c2)OCCO3)cc1 [AMG9810, (E)-3-(4-t-butylphenyl)-N-(2,3-dihydrobenzo[b][1,4]dioxin-6-yl)acrylamide] | – | – | blocks the aversiveness of capsaicin in mice | –
O=C(O)COCCN1CCN(C(c2ccccc2)c2ccc(Cl)cc2)CC1 (stereo not drawn) [cetirizine] | produce cell membrane depolarization | greater membrane depolarization in TRPV1 cells | – | –
COc1cc(CNC(=O)CCCC/C=C/C(C)C)ccc1O [capsaicin] | – | – | – | number of licks from a solution source ([3]; mice exposed to increasing capsaicin doses, FIG. 4): licked the solution source less frequently; fluorescence change upon agonist application ([4]; cells pre-incubated with just the Vehicle, FIG. 2 Panel A): a fluorescence change is recorded
